# Literature values as cited in patent publication US20240050408A1, “USE OF MGLUR5 ANTAGONISTS FOR TREATING AMPHETAMINE ADDICTION” (NOVARTIS AG, priority 2020, published 2024).
# Tests used:
# [1] = test system: methamphetamine conditioned place preference; conditions: rats; Herrold et al. 2013; cited from earlier work
# [2] = test system: methamphetamine self-administration behavior; conditions: rat model; Gass et al. 2009; cited from earlier work
SMILES,maintenance of the expression of methamphetamine conditioned place preference [1],cue- and drug-induced reinstatement of methamphetamine-seeking behavior [2],cue-induced reinstatement of food-seeking behavior [2],methamphetamine self-administration behavior [2],overall responding for food [2]
"Cc1cccc(C#Cc2ccccc2)n1 [MPEP, 2-Methyl-6-(phenylethynyl)-pyridine]",inhibited,–,–,–,–
"Cc1nc(C#Cc2cccnc2)cs1 [MTEP, 3-[(2-methyl-1,3-thiazol-4-yl)ethynyl]pyridine]",inhibited,dose dependently prevented,did not alter,dose dependently reduced,without altering
